Patent US7271239B2, “D-isomers of antimicrobial peptide” (The Research Foundation of State University of New York, priority 2004, dated 2007)
Like-named read-outs stand apart in the source and are kept apart here. Where a SMILES comes first, the peptide text is derived from it. Where no end group is shown, it is not given here. [ ]: non-standard residue; d: D form.

What was measured:
S. mutans GS-5 = assay: Time-kill assay; assay type: cell-based, Streptococcus mutans; details: after 4 h incubation, each agent at its MIC
Experimental: FIG. 10. Time-Killing curves for S. mutans. […] Control (▪), MUC7 12-mer-L (Δ), MUC7 12-mer-D (□), MUC7 20-mer (▴), Hsn5 12-mer (×), magainin II (●), chlorhexidine (◯).
For the peptides MUC7 12-mer-L, MUC7 12-mer-D, and MUC7 20-mer, time-kill kinetic studies against S. mutans were performed by the broth macrodilution method. S. mutans GS-5 (1×10^6 CFU/ml) and antibacterial agens (find concentrations of 12.5 μM for each peptide, and 2 μM for CHX; their MICs) were incubated in 25% BHI at 37° C. At the time of 0, 1, 2, 4, 8, and 24 h, samples were taken and viable counts determined as follows: The samples were serially diluted (10^−1 to 10^−4) in sterile 10 mM PBS (pH 7.2) and 50 μl aliquots were plated onto TSBY agar. The plates were incubated anaerobically at 37° C. for 48 h, followed by enumerating the CFU. Killing curves were constructed by plotting the log10 CFU per milliliter versus time over 24 h. All assays were done in duplicate on at least two occasions.

[1] = test system: S. mutans GS-5 1-day biofilm; assay type: cell-based, Streptococcus mutans
Experimental: FIG. 12. Effect of peptides on 1-day biofilm of S. mutans. One-day mature biofilm was prepared as described above. BHI medium supplemented with 1% sucrose (BHIS) with peptides, prepared in another microtiter plate, was then transferred to the biofilm plate. After further incubation at 37° C. for 24 h, the biofilm was fixed, stained, and quantified as describe above. Data represents mean and SD of two independent tests performed in duplicated. Empty bar: growth, solid bar: biofilm.
To examine the effects of the peptides on 1-day mature biofilm, S. mutans GS-5 was inoculated into the wells of another polystyrene microtiter plate containing BHIS at a volume of 200 μl per well. After incubation at 37° C. for 24 h, the culture supernatants from each well were decanted and planktonic cells were removed by washing with PBS. BHIS containing 0.78 to 100 μM peptides, prepared in another microtiter plate, was then transferred to the 1-day biofilm plate, and further incubated at 37° C. for one day. The biofilm was fixed, stained, and quantified as describe above.

Candida strains = assay type: cell-based
Excerpt: (§1) Killing assays in saliva. […] Saliva without peptides was a blank control.
(§2) Activity of peptides in saliva against different candida strains. The in vitro candidacidal activities of MUC7 12-mer-L and D, Hsn5 12-mer, and Magainin-II against four Candida strains in clarified saliva are shown in Table 1. The data are presented as percent loss of cell viability compared to non-treated control. The following observations were made. […] In the presence of PIC, the activity values of MUC7 12-mer-L and of Magainin-II rose close to a 100% for all strains, but not that of Hsn5 peptide, which achieved the similar activity only against the C. albicans (ATCC strain). The activities against the other strains were much lower, in particular against both strains of C. glabrata (30-40%). […] This was true especially in saliva without PIC.

trypsin = assay: Susceptibility of peptides to trypsin (SDS-PAGE); assay type: in vitro ADME
Experimental: FIGS. 3A and 3B. Stability of antimicrobial peptides in (3A) Trypsin and (3B) unclarified saliva. Each peptide (3 μg in 5 μl of 0.5 M Tris-HCl buffer pH 7.5) was incubated with: 0.2 μg/ml trypsin containing PIC or no PIC for 0.5 h; or saliva (10 μl) for 1 h. The control of each compound was also incubated with Tris-HCl buffer in parallel. The samples were analyzed by 13% SDS-PAGE. The gel was stained with Coomassie brilliant blue and further analyzed for the peptide degradation by GS-700 Imaging Densitometer. The degradation was estimated by the equation: 1−(density of test band/density of control band)×100%. Ctrol: each peptide alone; T: trypsin plus peptide; T+PIC: trypsin containing PIC plus peptide; S: saliva plus peptide; S+PIC: saliva containing PIC plus peptide.
Stability of peptides in saliva and susceptibility of septides to trypsin. Three microliters of each peptide (MUC7 12-mer-D, MUC7 12-mer-L, Hsn5 12-mer, or Magainin-II, at 1 μg/μl in 0.2 M Tris-HCl buffer pH 7.5) were incubated with 11 μl of 0.2 μg/ml trypsin or saliva. This gave a final concentration of 0.16 μg/ml for trypsin, and 0.2 μg/μl for peptides (or 127, 127, 128, and 81 μM, for MUC7 12-mer-D, MUC7 12-mer-L, Hsn5 12-mer, or Magainin II, respectively). The reactions, without PIC (water instead or PIC) or with 1×PIC [50% (v/v)] were incubated 0.5 h with trypsin, and 1 hr with saliva (clarified or unclarified) at 37° C. The control of each compound was also incubated with Tris-HCl buffer in parallel. The samples were analyzed by 13% SDS-PAGE. Gels was stained with Coomassie brilliant blue R-250 and further analyzed for the peptide degradation by GS-700 Imaging Densitometer (Bio Red). The degradation was estimated by the equation: 1−(density of test band/density of control band)×100%.

C. albicans ATCC96112 = assay: Killing assay in clarified saliva; assay type: cell-based
Excerpt: as §1, §2

C. glabrata ATCC90030 = assay: Killing assay in clarified saliva; assay type: cell-based
Excerpt: as §1, §2

C. krusei = assay: Killing assay in clarified saliva; assay type: cell-based
Excerpt: as §1, §2

[2] = lowest concentration with 50% or more eradication of 1-day biofilm

Molecule	reduction of the viable counts of S. mutans (S. mutans GS-5)	MBEC50 (μg/ml) [1]	MBEC50 (μM) [1, 2]	killing (Candida strains)	MBEC50 (μM) ([1]; GS-5 1-day biofilm, 24 h)	degradation by trypsin (trypsin)	further results
[H]/N=C(\N/C(=N/[H])NCCCCCCNC(=N)NC(=N)Nc1ccc(Cl)cc1)Nc1ccc(Cl)cc1 [Chlorhexidine, Chlorhexidine digluconate]	1 log10	>10 µg/mL	>20 µM	–	–	–	–
CC(C)C[C@@H](NC(=O)[C@@H](CS)NC(=O)[C@@H](CCCCN)NC(=O)[C@@H](Cc1ccc(O)cc1)NC(=O)[C@@H](CO)NC(=O)[C@@H](CCCCN)NC(=O)[C@H](N)CCCNC(=N)N)C(=O)N[C@H](Cc1c[nH]cn1)C(=O)N[C@H](CCCCN)C(=O)N[C@H](CCCNC(=N)N)C(=O)N[C@H](CS)C(=O)N[C@H](CCCNC(=N)N)C(=O)O [MUC7 12-mer-D] (H-[dR][dK][dS][dY][dK][dC][dL][dH][dK][dR][dC][dR]-OH; N-terminus and C-terminus assumed)	–	–	–	~100%	25 µM	resistant to the degradation	activity (killing) (Candida strains): 47-100%
CC(C)C[C@H](NC(=O)[C@H](CS)NC(=O)[C@H](CCCCN)NC(=O)[C@H](Cc1ccc(O)cc1)NC(=O)[C@H](CO)NC(=O)[C@H](CCCCN)NC(=O)[C@@H](N)CCCNC(=N)N)C(=O)N[C@@H](Cc1c[nH]cn1)C(=O)N[C@@H](CCCCN)C(=O)N[C@@H](CCCNC(=N)N)C(=O)N[C@@H](CS)C(=O)N[C@@H](CCCNC(=N)N)C(=O)O [MUC7 12-mer-L] (H-RKSYKCLHKRCR-OH; N-terminus and C-terminus assumed)	–	–	–	44-80%	50 µM	degraded	–
AKRHHGYKRKFH [Hsn5 12-mer]	–	–	–	–	>50 µM	degraded	MBEC50 (μg/ml) ([1]; GS-5 1-day biofilm, 24 h): >78 µg/mL
GIGKFLHSAKKFGKAFVGEIMNS [Magainin-II]	3 log10	>125 µg/mL	>50 µM	–	–	–	percent loss of cell viability (C. albicans ATCC96112; PIC+): 97.90%; percent loss of cell viability (C. albicans ATCC96112; PIC−): 7.17%; percent loss of cell viability (C. glabrata ATCC90030; PIC+): 99.06^± %; percent loss of cell viability (C. glabrata ATCC90030; PIC−): 0.00%; percent loss of cell viability (C. krusei; PIC+): 100%; percent loss of cell viability (C. krusei; PIC−): 0.00%; eradication of 1-day developed biofilm ([1]; at or more than MBEC50): eradication was not observed; degradation by trypsin (trypsin; 0.5 h, 37° C., SDS-PAGE): degraded
